Measured values as given in US7723091B2 (priority 1999, dated 2010).
Like-named read-outs stand apart in the source and are kept apart here. Marks after values point to notes of the source that are not given here.

Tests used:
[1] = test system: E. acervulina, E. maxima, and C. perfringens; assay type: in vivo, broiler chickens; settings: Trial III; for Feed Consumption Day 0-21 / Feed Consumption Day 8-21 / Feed Conversion Day 0-21 / Feed Conversion Day 8-21 / Lesion Scores E. acer. / Lesion Scores E. max. / Live Wt. Day 21 / Weight AF/G Treatment (weight adjusted feed conversion) / Weight Gain Day 0-21 / Weight Gain Day 8-21: infected
[2] = test system: E. acervulina, E. maxima and Clostridium perfringens; assay type: in vivo, broiler chickens; settings: Trial IV; infected; PI-PLC 30 U/lb, Man. 121 MU/ton, BMD 50 g/ton, salinomycin 60 g/ton
[3] = test system: Eimeria acervulina sporozoites; assay: In vitro invasion of BHK cells by Eimeria acervulina sporozoites; assay type: cell-based
Description: Eineria acervulina sporozoites or Eimeria tenella sporozoites and cultured baby hamster kidney (BHK) cells were prepared by published methods. See Augustine, Avian and Poultry Biology Reviews 1:113-122, 2000. For cell pretreatment, cell cultures were overlaid with dilutions of enzymes as described in Table 11, and examined for morphological changes from 5 to 45 min post overlay. After 45 minutes, the monolayer cultures were washed twice, then inoculated with untreated E. acervulina or E. tenella sporozoites. For application during infection, sporozoites were suspended in the appropriate dilution of the enzyme and inoculated immediately into the cell cultures. After 45 minutes incubation, cultures were fixed, stained, and the invasion was quantified.
Observations were made looking for changes in gross morphology of sporozoites or cells due to enzyme treatment. At the enzyme levels used in these experiments, no morphological change was noted. The sporozoite invasion of the cultured cells was measured after the two methods of enzyme treatment, as well as without enzyme treatment, by histological staining and microscopy procedures. See Augustine, supra.

C. parvum = assay: Anti-cryptosporidial activity in MDCK cell cultures (chemiluminescence immunoassay); assay type: cell-based, Cryptosporidium parvum
Description: The enzyme PI-PLC was evaluated for anti-cryptosporidial activity and toxicity at concentrations ranging from 0.001-30 U/ml were performed using 4-day-old Madin-Darby canine kidney (MDCK) cells. Enzyme units were defined as by the method in Example 4 but measured as in Example 9. The preparation of enzyme used was from recombinant Bacillus megaterium. Treatment was initiated 3 hours after infection and continued through 48 hours.
Chemiluminescence Immunoassay. Before infection, oocysts were washed and resuspended in DMEM base with 0.75% sodium taurocholate and incubated for 10 min at 37° C. (You et al., FEMS Microbiol. Letters 136:251-256, 1996; You et al., J. Antimicrobial. Chemother. 41:293-296, 1998). The excystation mixture was diluted with Ultraculture medium, promptly dispensed in plates containing MDCK cells, at 100% confluence, and maintained in Ultraculture medium for 4 days. The inoculum was incubated with the cells for3 h before washing with PBS and replaced with fresh Ultraculture medium with or without test enzyme. Plates were incubated at 37° C., in a 5% CO2 air atmosphere for 48 h. Cultures were washed with PBS and fixed with Bouin's solution.
The fixed plates were washed with TBST buffer (20 mM Tris-HCl (pH 7.5), 150 mM NaCl, 0.05% Tween-20) and blocked with 1% BSA-TBST (TBST buffer containing 1% bovine serum albumin) for 30 min at 25° C. with gentle shaking. Rabbit anti-Cryptosporidium parvum sera (1:200 dilution) was applied to the plates and incubated for 1 hr. After washing with TBST, the samples were sequentially incubated with biotin-labeled goat anti-rabbit IgG and horseradish peroxidase-labeled streptavidin (working dilution, 1:1000, KPL Inc., Gaithersburg, Md.). Enhanced Luminol (4-iodophenol and hydrogen peroxide, Aldrich Chemical Co. Inc., Milwaukee, Wis.) was used as a substrate. The plates were read with an ML3000 Luminometer (Dynatech Lab., Chantilly, Va.) and the relative light units (RLU) were determined. Means of RLU were calculated from 4 replicate wells and all experiments were repeated at least twice.
A second set of experiments were performed to evaluate enzyme specificity. Sporozoites were treated with the enzyme at various concentrations for 45 min and briefly washed. The treated sporozoites were then allowed to infect untreated host cells and develop and reproduce for 48 hours. In a separate experiment, host cells were incubated with the enzyme at various concentrations, washed and infected with untreated sporozoites. As shown below (Table 14), treatment of either sporozoite or host cells with the enzyme results in partial inhibition. A dose dependent inhibition was not observed in this concentration range. This may be due to the short incubation period of the enzyme with host or parasite cells (45 min) or partial or incomplete cleavage of host/parasite receptors. Additionally, other host/parasite receptors are probably involved in infection and account for the growth observed in the host cells.

[4] = PI-PLC 10 U/lb (T5; T7 with mannanase 100 MU/ton)
[5] = PI-PLC 30 U/lb (T6; T8 with mannanase 100 MU/ton; T10 with medication)
[6] = Host cells treated before infection (washed), 0.01 Unit/ml
[7] = Host cells treated before infection (washed), 0.03 Unit/ml
[8] = Host cells treated before infection (washed), 0.1 Unit/ml
[9] = Host cells treated before infection (washed), 0.3 Unit/ml
[10] = Host cells treated before infection (washed), 1 Unit/ml
[11] = Sporozoite treated before infection (45 min, washed), 0.01 Unit/ml
[12] = Sporozoite treated before infection (45 min, washed), 0.03 Unit/ml
[13] = Sporozoite treated before infection (45 min, washed), 0.1 Unit/ml
[14] = Sporozoite treated before infection (45 min, washed), 0.3 Unit/ml
[15] = Sporozoite treated before infection (45 min, washed), 1 Unit/ml
[16] = enzyme added 3 h post infection, 48 h, 0.01 Unit/mL
[17] = enzyme added 3 h post infection, 48 h, 0.03 Unit/mL
[18] = enzyme added 3 h post infection, 48 h, 0.1 Unit/mL
[19] = enzyme added 3 h post infection, 48 h, 0.3 Unit/mL
[20] = enzyme added 3 h post infection, 48 h, 1 Unit/mL

In the case of “phosphatidylinositol specific phospholipase C [Recombinant PI-PLC]”, the “improvement in AF/G worsening present in the infected control (T3 v. T1)” value ([1]; infected birds, mannanase 100 MU per ton, PI-PLC in the feed) is reported as 33-41%, the “Feed Consumption Day 0-21” value [1, 4] is reported as 10.456^cd and the “Feed Consumption Day 8-21” value [1, 4] is reported as 8.228^abc. The “Feed Conversion Day 0-21” value [1, 4] was 1.560^bc, the “Feed Conversion Day 8-21” value [1, 4] was 1.591b^c and the “Lesion Scores E. acer.” value [1, 4] was 1.34^a. The “Lesion Scores E. max.” value [1, 4] was 1.19^bc, the “Live Wt. Day 21” value [1, 4] was 0.635^c and the “Weight AF/G Treatment (weight adjusted feed conversion)” value [1, 4] was 1.512. For the same substance, the “Weight Gain Day 0-21” value [1, 4] was 0.594^c, the “Weight Gain Day 8-21” value [1, 4] was 0.477^b and the “Feed Consumption Day 0-21” value [1, 5] was 10.266^d. The “Feed Consumption Day 8-21” value [1, 5] was 7.982^c, the “Feed Conversion Day 0-21” value [1, 5] was 1.572^b and the “Feed Conversion Day 8-21” value [1, 5] was 1.621^ab. The “Lesion Scores E. acer.” value [1, 5] was 1.16^ab, the “Lesion Scores E. max.” value [1, 5] was 1.13^cd and the “Live Wt. Day 21” value [1, 5] was 0.638^c. The “Weight AF/G Treatment (weight adjusted feed conversion)” value [1, 5] was 1.526, the “Weight Gain Day 0-21” value [1, 5] was 0.597^c and the “Weight Gain Day 8-21” value [1, 5] was 0.483^b. For the same substance, the “Feed Conversion Day 0-21” value [2] was 1.701, the “Feed Conversion Day 8-21” value [2] was 1.778 and the “Lesion Score E. acer. Upper” value [2] was 2.25. For the same substance, the “Lesion Score E. max. Middle” value [2] was 1.50, the “Live Weight Day 21” value [2] was 0.486 and the “Weight Gain Day 0-21” value [2] was 0.451. The “Weight Gain Day 8-21” value [2] was 0.347, the “Invasion counts (mean ± standard error of the mean)” value ([3]; Application of Enzyme During Infection, Test 1, B. cereus PI-PLC 0.0403 U/mL, recombinant 0.261 U/mL, listed as PI-PLC from Recombinant B. megateriaum) was 16 ± 2^c and the “Invasion counts (mean ± standard error of the mean)” value ([3]; Application of Enzyme During Infection, Test 1, recombinant PI-PLC 0.0261 U/mL) was 36 ± 3^b. The “Invasion counts (mean ± standard error of the mean)” value ([3]; Application of Enzyme During Infection, Test 2, B. cereus PI-PLC 0.0403 U/mL, recombinant 0.261 U/mL, listed as PI-PLC from Recombinant B. megateriaum) was 18 ± 1^bc, the “Invasion counts (mean ± standard error of the mean)” value ([3]; Application of Enzyme During Infection, Test 2, recombinant PI-PLC 0.0261 U/mL) was 9 ± 2^c and the “Invasion counts (mean ± standard error of the mean)” value ([3]; Cell Pretreatment with Enzyme Followed by Wash, Test 1, B. cereus PI-PLC 0.0403 U/mL, recombinant 0.261 U/mL, mannanase 5100 U/mL, listed as PI-PLC from Recombinant B. megateriaum) was 14 ± 1^b. The “Invasion counts (mean ± standard error of the mean)” value ([3]; Cell Pretreatment with Enzyme Followed by Wash, Test 1, recombinant PI-PLC 0.0261 U/mL) was 18 ± 1^ab, the “Invasion counts (mean ± standard error of the mean)” value ([3]; Cell Pretreatment with Enzyme Followed by Wash, Test 2, B. cereus PI-PLC 0.0403 U/mL, recombinant 0.261 U/mL, mannanase 5100 U/mL, listed as PI-PLC from Recombinant B. megateriaum) was 22 ± 1^b and the “Invasion counts (mean ± standard error of the mean)” value ([3]; Cell Pretreatment with Enzyme Followed by Wash, Test 2, recombinant PI-PLC 0.0261 U/mL) was 26 ± 1^ab. The “Mean Number of Cryptosporidium per microtiter plate well” value (shortened to “Mean Number … per microtiter plate well”) (C. parvum; [6]) was 543.85, the “Percent Inhibition” value (C. parvum; [6]) was 56.84% and the “Mean Number … per microtiter plate well” value (C. parvum; [7]) was 522.66. For the same substance, the “Percent Inhibition” value (C. parvum; [7]) was 58.53%, the “Mean Number … per microtiter plate well” value (C. parvum; [8]) was 455.88 and the “Percent Inhibition” value (C. parvum; [8]) was 63.82%. For the same substance, the “Mean Number … per microtiter plate well” value (C. parvum; [9]) was 629.24, the “Percent Inhibition” value (C. parvum; [9]) was 50.07% and the “Mean Number … per microtiter plate well” value (C. parvum; [10]) was 393.64. The “Percent Inhibition” value (C. parvum; [10]) was 68.76%, the “Mean Number … per microtiter plate well” value (C. parvum; [11]) was 542.15 and the “Percent Inhibition” value (C. parvum; [11]) was 56.98%. For the same substance, the “Mean Number … per microtiter plate well” value (C. parvum; [12]) was 527.59, the “Percent Inhibition” value (C. parvum; [12]) was 58.13% and the “Mean Number … per microtiter plate well” value (C. parvum; [13]) was 536.80. The “Percent Inhibition” value (C. parvum; [13]) was 57.40%, the “Mean Number … per microtiter plate well” value (C. parvum; [14]) was 433.04 and the “Percent Inhibition” value (C. parvum; [14]) was 65.64%. The “Mean Number … per microtiter plate well” value (C. parvum; [15]) was 412.40, the “Percent Inhibition” value (C. parvum; [15]) was 67.27% and the inhibition (C. parvum; at a concentration of 0.1 U/mL (FIG. 1), enzyme added 3 h after infection for 48 hours) was “Approximately 50%”. For the same substance, the “concentration range with anti-cryptosporidial activity in vitro” value (C. parvum; enzyme added 3 h after infection for 48 hours) was 0.01-1 U/mL, the “Mean Number … per microtiter plate well” value (C. parvum; [16]) was 1167.78 and the “Percent Inhibition” value (C. parvum; [16]) was 7.33%. For the same substance, the “Mean Number … per microtiter plate well” value (C. parvum; [17]) was 912.15, the “Percent Inhibition” value (C. parvum; [17]) was 27.62% and the “Mean Number … per microtiter plate well” value (C. parvum; [18]) was 595.53. The “Percent Inhibition” value (C. parvum; [18]) was 52.74%, the “Mean Number … per microtiter plate well” value (C. parvum; [19]) was 286.5 and the “Percent Inhibition” value (C. parvum; [19]) was 77.26%. For the same substance, the “Mean Number … per microtiter plate well” value (C. parvum; [20]) was 285.28 and the “Percent Inhibition” value (C. parvum; [20]) was 77.36%.
